Patent publication US20260132129A1 (Genesis Therapeutics, Inc., priority 2022, published 2026)
pIC50: −log10 of the molar value.

Biological target: T1, PI3Kα H1047R (T47D cells) (Homo sapiens, UniProt P42336, H1047R)
T1 construct: endogenous in cells; host or cells: T47D cells
Assay: PI3Kα cellular assay: pAKT HTRF in T47D cells after EGF stimulation
Type: cell-based
Settings: for pIC50: T47D cells (PI3Kα H1047R), pAKT S473 HTRF, EGF stimulation; for T47D pAKT S473 HTRF IC50 (H1047R): T47D (H1047R) selectivity over SKBR3 (WT): selectivity of T47D (H1047R) over SKBR3 (WT) pAKT IC50
Method in brief: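 T47D cells (PIK3CA H1047R) serum-starved 16 h, then treated 1 h at 37 °C with compound (10,000 nM top, 3-fold steps to 0.5 nM). After 10 min stimulation with 20 ng/mL EGF, cells were lysed and pAKT measured by HTRF.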

T1 sequence (P42336 whole entry H1047R): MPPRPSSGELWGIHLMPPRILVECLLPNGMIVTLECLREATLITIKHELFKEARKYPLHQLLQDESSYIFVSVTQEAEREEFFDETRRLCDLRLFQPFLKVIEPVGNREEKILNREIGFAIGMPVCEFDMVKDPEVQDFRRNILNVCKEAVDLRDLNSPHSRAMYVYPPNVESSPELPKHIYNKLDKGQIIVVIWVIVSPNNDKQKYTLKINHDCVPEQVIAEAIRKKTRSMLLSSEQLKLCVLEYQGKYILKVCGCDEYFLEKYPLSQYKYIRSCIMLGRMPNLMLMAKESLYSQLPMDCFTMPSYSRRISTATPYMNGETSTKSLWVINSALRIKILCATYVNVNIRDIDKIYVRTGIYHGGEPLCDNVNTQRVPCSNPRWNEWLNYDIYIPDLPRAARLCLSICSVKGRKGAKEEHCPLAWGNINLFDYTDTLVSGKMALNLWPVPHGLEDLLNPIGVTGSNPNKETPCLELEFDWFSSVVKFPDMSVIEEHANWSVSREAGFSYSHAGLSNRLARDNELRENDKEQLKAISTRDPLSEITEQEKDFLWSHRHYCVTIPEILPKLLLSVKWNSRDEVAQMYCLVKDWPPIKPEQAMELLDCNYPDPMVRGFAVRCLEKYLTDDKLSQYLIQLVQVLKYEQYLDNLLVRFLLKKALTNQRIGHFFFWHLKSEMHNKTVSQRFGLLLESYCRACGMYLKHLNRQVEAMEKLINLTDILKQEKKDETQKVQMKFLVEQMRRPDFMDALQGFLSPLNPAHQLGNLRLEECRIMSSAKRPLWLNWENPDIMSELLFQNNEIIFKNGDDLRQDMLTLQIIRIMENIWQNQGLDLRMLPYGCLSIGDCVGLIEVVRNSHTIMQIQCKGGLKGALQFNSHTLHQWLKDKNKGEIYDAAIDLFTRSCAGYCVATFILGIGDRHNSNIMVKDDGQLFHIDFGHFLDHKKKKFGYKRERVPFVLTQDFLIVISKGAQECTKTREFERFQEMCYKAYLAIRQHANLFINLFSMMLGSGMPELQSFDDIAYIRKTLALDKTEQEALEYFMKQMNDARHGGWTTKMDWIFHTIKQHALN
T1 sequence (P27986 whole entry partner): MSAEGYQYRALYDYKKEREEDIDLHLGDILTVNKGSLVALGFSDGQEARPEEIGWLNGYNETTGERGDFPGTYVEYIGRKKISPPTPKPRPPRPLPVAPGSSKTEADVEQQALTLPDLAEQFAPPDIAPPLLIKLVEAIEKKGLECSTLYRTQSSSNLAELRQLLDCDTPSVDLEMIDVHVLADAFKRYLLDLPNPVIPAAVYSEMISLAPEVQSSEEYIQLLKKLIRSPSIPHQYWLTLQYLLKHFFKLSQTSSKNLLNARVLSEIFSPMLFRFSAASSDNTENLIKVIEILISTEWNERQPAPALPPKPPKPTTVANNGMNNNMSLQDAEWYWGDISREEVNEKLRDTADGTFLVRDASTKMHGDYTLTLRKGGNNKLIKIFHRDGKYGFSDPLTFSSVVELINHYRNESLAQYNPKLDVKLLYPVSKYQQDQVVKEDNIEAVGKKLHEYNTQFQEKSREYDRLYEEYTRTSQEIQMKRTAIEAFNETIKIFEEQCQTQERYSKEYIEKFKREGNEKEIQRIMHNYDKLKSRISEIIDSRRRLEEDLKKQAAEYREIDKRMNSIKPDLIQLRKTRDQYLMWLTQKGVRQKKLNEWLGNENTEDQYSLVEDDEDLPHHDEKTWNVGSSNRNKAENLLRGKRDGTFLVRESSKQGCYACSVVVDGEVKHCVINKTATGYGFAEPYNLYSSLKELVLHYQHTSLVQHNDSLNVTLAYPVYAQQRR

pIC50	T47D pAKT S473 HTRF IC50 (H1047R): T47D (H1047R) selectivity over SKBR3 (WT)	SMILES
6.30 to 7.00	A (A denotes >20-fold)	Cc1cc(C(C)Nc2ccccc2C(=O)O)c2nc(-c3ccc4c(n3)c(C)nn4C)cc(=O)n2c1 (centres unmarked) [Compound 858]
5.70 to 6.30	B (B denotes 20-fold≥value>5-fold)	Cc1cc([C@@H](C)Nc2ccccc2C(=O)O)c2nc(N3C[C@H](C)C[C@H](C(F)F)C3)cc(=O)n2c1 [Compound 868]
6.30 to 7.00	A (A denotes >20-fold)	Cc1cc(C(C)Nc2ccccc2C(=O)O)c2nc(-c3ccc4c(c3)c(N)nn4C3CC3)cc(=O)n2c1 (centres unmarked) [Compound 870]
> 7.00	A (A denotes >20-fold)	Cc1cc(C(C)Nc2ccccc2C(=O)O)c2nc(-c3ccc4c(c3)c(C)nn4C3CC3)cc(=O)n2c1 (centres unmarked) [Compound 890]
	A (A denotes >20-fold)	CC(Nc1ccccc1C(=O)O)c1cc(C(F)(F)F)cn2c(=O)cc(N3C[C@@H](C)O[C@@H](C)C3)nc12 (some centres unmarked) [Compound 898]
	A (A denotes >20-fold)	Cc1cc(C(C)Nc2ccccc2C(=O)O)c2nc(C3C[C@@H](C)O[C@@H](C)C3)c(C)c(=O)n2c1 (some centres unmarked) [Compound 901]
6.30 to 7.00	A (A denotes >20-fold)	Cc1cc(C(C)Nc2ccccc2C(=O)O)c2nc(N3CC4(CCOCC4)C3)c(C)c(=O)n2c1 (centres unmarked) [Compound 904]
	C (C denotes ≤5-fold)	Cc1c(N2C[C@@H](C)O[C@@H](C)C2)nc2c([C@@H](C)Nc3ccccc3C(=O)O)cc(C(F)(F)F)cn2c1=O [Compound 907]
6.30 to 7.00	A (A denotes >20-fold)	Cc1cc(C(C)Nc2ccccc2C(=O)O)c2nc(N3C[C@@H](C)O[C@@H](C)C3)c(C)c(=O)n2c1 (some centres unmarked) [Compound 915]
	B (B denotes 20-fold≥value>5-fold)	Cc1cc([C@@H](C)Nc2ccccc2C(=O)O)c2nc(-c3ccc4c(C)n[nH]c4c3)cc(=O)n2c1 [Compound 923]
6.30 to 7.00	A (A denotes >20-fold)	Cc1cc([C@@H](C)Nc2ccccc2C(=O)O)c2nc(C3C[C@@H](C)O[C@@H](C)C3)cc(=O)n2c1 (some centres unmarked) [Compound 924]
5.70 to 6.30	B (B denotes 20-fold≥value>5-fold)	Cc1cc([C@H](C)Nc2ccccc2C(=O)O)c2nc(C3C[C@@H](C)O[C@@H](C)C3)cc(=O)n2c1 (some centres unmarked) [Compound 925]
< 5.70	C (C denotes ≤5-fold)	Cc1cc(C(C)CNc2ccccc2C(=O)O)c2nc(N3CCOCC3)cc(=O)n2c1 (centres unmarked) [Compound 929]

The next lines start with the compound.

SMILES	pIC50	T47D pAKT S473 HTRF IC50 (H1047R): T47D (H1047R) selectivity over SKBR3 (WT)
Cc1cc(C(C)Nc2ccccc2C(=O)O)c2nc(-c3ccc4c(n3)c(C)nn4C)c(C)c(=O)n2c1 (centres unmarked) [Compound 859]	6.30 to 7.00	A (A denotes >20-fold)
COc1cccc(NC(C)c2cc(C)cn3c(=O)cc(N4Cc5ccccc5C4)nc23)c1CO (centres unmarked) [Compound 865]	< 5.70	C (C denotes ≤5-fold)
C=CC(=O)Nc1ccc(C(=O)O)c(N[C@H](C)c2cc(C)cn3c(=O)cc(N4CCOCC4)nc23)c1 [Compound 872]	< 5.70	C (C denotes ≤5-fold)
C=CC(=O)Nc1ccc(C(=O)O)c(N[C@@H](C)c2cc(C)cn3c(=O)cc(N4CCOCC4)nc23)c1 [Compound 873]	< 5.70	C (C denotes ≤5-fold)
Cc1cc([C@@H](C)Nc2ccccc2-c2ccnnc2)c2nc(N3Cc4ccccc4C3)c(C3CC3)c(=O)n2c1 [Compound 874]	< 5.70	
Cc1cc([C@H](C)Nc2ccccc2-c2ccnnc2)c2nc(N3Cc4ccccc4C3)c(C3CC3)c(=O)n2c1 [Compound 875]	> 7.00	A (A denotes >20-fold)
Cc1cc([C@@H](C)NCc2cccnn2)c2nc(N3Cc4ccccc4C3)cc(=O)n2c1 [Compound 876]	< 5.70	C (C denotes ≤5-fold)
Cc1cc(C(C)Nc2ccccc2-c2nnn[nH]2)c2nc(N3Cc4ccccc4C3)cc(=O)n2c1 (centres unmarked) [Compound 877]	6.30 to 7.00	A (A denotes >20-fold)
Cc1cc([C@H](C)Nc2ccccc2C(=O)O)c2nc(-c3ccc4c(c3)c(C)cn4C)c(C)c(=O)n2c1 [Compound 903]	5.70 to 6.30	B (B denotes 20-fold≥value>5-fold)
Cc1cc([C@@H](C)N[C@@H]2CCCC[C@@H]2C(=O)O)c2nc(N3CCOCC3)cc(=O)n2c1 [Compound 905]	< 5.70	C (C denotes ≤5-fold)
Cc1cc([C@H](C)N[C@@H]2CCCC[C@@H]2C(=O)O)c2nc(N3CCOCC3)cc(=O)n2c1 [Compound 906]	< 5.70	C (C denotes ≤5-fold)
Cc1cc([C@H](C)Nc2ccccc2-c2ccnnc2)c2nc(N3Cc4ccccc4C3)c(C)c(=O)n2c1 [Compound 909]	< 5.70	C (C denotes ≤5-fold)
Cc1cc([C@H](C)Nc2ccccc2C(=O)O)c2ncc(Cc3ccc(F)cc3)c(=O)n2c1 [Compound 914]	< 5.70	C (C denotes ≤5-fold)
Cc1cc([C@H](C)Nc2ccccc2C(=O)O)c2nc(N3CC4(CCNCC4)C3)c(C)c(=O)n2c1 [Compound 917]		C (C denotes ≤5-fold)
Cc1cc(C(C)Nc2cccc3oc(=O)[nH]c23)c2nc(N3CCOCC3)cc(=O)n2c1 (centres unmarked) [Compound 918]	< 5.70	C (C denotes ≤5-fold)
Cc1cc([C@H](C)Nc2ccccc2C(=O)O)c2nc(-c3ccc4c(c3)c(N(C)C)nn4C)c(C)c(=O)n2c1 [Compound 920]	< 5.70	C (C denotes ≤5-fold)
CC(Nc1ccccc1C(=O)O)c1cc(C(F)(F)F)cn2c(=O)cc(N3Cc4ccccc4C3)nc12 (centres unmarked) [Compound 921]	< 5.70	C (C denotes ≤5-fold)
CC(Nc1ccccc1C(=O)O)c1cc(C(F)(F)F)cn2c(=O)cc(N3Cc4ccccc4C3)nc12 (centres unmarked) [Compound 922]	> 7.00	A (A denotes >20-fold)
Cc1cc(C(C)Nc2ccccc2C(=O)C(F)(F)F)c2nc(N3Cc4ccccc4C3)c(C)c(=O)n2c1 (centres unmarked) [Compound 926]	< 5.70	C (C denotes ≤5-fold)
Cc1cc([C@@H](C)Nc2ccccc2C(=O)O)c2nc(-c3ccc4c(C)nn(C)c4c3)c(C)c(=O)n2c1 [Compound 927]	> 7.00	A (A denotes >20-fold)
Cc1cc([C@H](C)Nc2ccccc2C(=O)O)c2nc(-c3ccc4c(C)nn(C)c4c3)c(C)c(=O)n2c1 [Compound 928]	< 5.70	C (C denotes ≤5-fold)
